# Laboratory results from article PMC11933534, “Favipiravir induces HuNoV viral mutagenesis and infectivity loss with clinical improvement in immunocompromised patients” (Clinical Immunology (Orlando, Fla.), 2024).
# Key:
# Type in all cases: in vivo
# [1] = tested on: Mx; assay: Innate immune gene expression in HuNoV-infected zebrafish larvae: Mx; details: tizoxanide 4 ng; HuNoV GII.4 Sydney[P16]; day 2 pi; p = 0.0403
# Method: (§1) To generate the cDNA, the ImProm-II Reverse Transcription System (Promega, Madison, WI, USA) was used. Briefly, a total of 1 μg (ca. 8 μL) of extracted RNA was added to 2 μL of random hexamers and incubated at 70 °C for 5 min, followed by 5 min at 4 °C. To this reaction mix a total volume of 30 μL containing 8 μL of Improm II 5× reaction buffer, 6 mM MgCl2, 0.5 mM deoxynucleoside triphosphate, 40 units of RNase inhibitor, 2 μL of Improm II reverse transcriptase, followed by an incubation at 25 °C for 5 min, 37 °C for 1 h, and 72 °C for 15 min. A qPCR was performed with 4 μL template cDNA using the SsoAdvanced Universal SYBR green supermix, 600 nM of forward and reverse primers for IRF-1, Mx and the housekeeping genes 18 s, β-actin, and ef1a. Primer sequences were as previously described [[65], [66], [67], [68]]. Cycling conditions were as follows; polymerase activation at 95 °C for 3 min followed by 40 cycles of denaturation at 95 °C for 15 s, annealing at 55 °C and extension at 72 °C for 30 s (Quantstudio 5, ThermoFisher Scientific, Waltham, MA, USA). Data was normalized to the housekeeping genes and compared to DMSO-injected zebrafish larvae infected with HuNoV to determine the fold induction of the expression, according to the Livak method.
# [2] = tested on: zebrafish larvae; assay: Toxicity analysis in zebrafish larvae
# Method: (§2) First, compounds were dissolved in 100% DMSO (spectroscopy grade). To determine the correct dose for pericardial injections in zebrafish larvae of all compounds (i.e. favipiravir, tizoxanide and their 1:1 combination), a weight-dependent conversion was applied. For this purpose, the optimized and increased clinical dose of 400 mg favipiravir TDS and 200 mg tizoxanide BD was used. To ensure the weight-converted dose was not toxic for zebrafish larvae of 3 days post fertilization, a toxicity analysis was performed. […] The following parameters were investigated: touch response, morphology, posture, oedema, signs of necrosis, swim bladder and heartbeat.
# [3] = tested on: IRF-1; assay: Innate immune gene expression in HuNoV-infected zebrafish larvae: IRF-1; details: tizoxanide 4 ng; HuNoV GII.4 Sydney[P16]; day 2 pi; p = 0.023
# Method: as §1
# [4] = tested on: HuNoV GII.4 Sydney[P16]; assay: Antiviral treatment of HuNoV-infected zebrafish larvae (viral RNA by RT-qPCR)
# Method: as §2
# Zebrafish larvae were anesthetized and positioned as described previously, in short: zebrafish larvae of 3 days post fertilization were anesthetized and transferred to an agarose mold to position them on their dorsal side with the yolk facing upward. In every experiment, the injection needle was calibrated to ensure the precision of the injection volume. Microinjection was performed using an M3301R Manual Micromanipulator (WPI, Friedberg, Germany) and a FemtoJet 4i pressure microinjector (Eppendorf, Hamburg, Germany). Compound-treated zebrafish larvae received a 1 nL (1.5 nL in case of the combination treatment) injection of compound in the pericardial cavity, while negative control zebrafish were injected with an equal volume of DMSO. Subsequently, the zebrafish larvae received an injection of 3 nL virus in the yolk. After both injections, zebrafish larvae were transferred to 6-well plates with Danieau's solution and further maintained in an incubator with a 14/10 h light/dark cycle at 32 °C.
# Zebrafish larvae were homogenized (Precellys 24, Bertin Technologies, Montigny-le-Bretonneux, France), the homogenates were cleared by centrifugation (5 min, 9000 g), and RNA was extracted using the Direct-zol RNA kit (Zymo Research, Irvine, CA, USA), according to the manufacturer's protocol. RNA levels were quantified with a one-step RT-qPCR (iTaq Universal Probes One-Step Kit, Bio-Rad, Hercules, CA, USA) as previously described.
smiles,measurement,setting,value
O=C(Nc1ncc([N+](=O)[O-])s1)c1ccccc1O [tizoxanide],Fold increase in Mx expression vs untreated (DMSO) infected larvae,[1],9 fold
same,Toxicity in the zebrafish larval model,"[2]; 25 ng favipiravir or 4 ng tizoxanide, drug administered alone",did not show toxicity
same,Toxicity in the zebrafish larval model,[2]; tizoxanide 6 ng,"signs of toxicity, including heart oedema, necrosis and spine curvature"
same,Fold increase in IRF-1 expression vs untreated (DMSO) infected larvae,[3],4 fold
same,Reduction of HuNoV replication,"[4]; monotherapy favipiravir 25 ng or tizoxanide 4 ng, in-house GII.4 Sydney[P16] stool sample, peak 2 dpi, p = 0.0006 and 0.001",> 1 log10
same,Effect on HuNoV replication,"[4]; tizoxanide 4 ng alone, inoculum SS A, p > 0.05",no significant effect
